Test results as given in patent publication US20250268902A1, “THERAPEUTIC METHODS” (CeleCor Therapeutics, Inc., priority 2021, published 2025).
Where two headings read alike, the source gives them in different places.

Experiments:
[1] = test system: agglutination of fibrinogen-coated beads by activated platelets; test: VerifyNow ADP+PGE1, iso-TRAP and base channel assays; format: cell-based
Procedure: VerifyNow (VN) assays (Instrumentation Laboratories, Bedford, MA) are whole-blood, cartridge-based, and automated, and produce results within 15 minutes of blood draw. They are based on the agglutination of fibrinogen-coated beads by platelets activated by different agonists. Commercially available VN assays are designed to study the antiplatelet effects of aspirin (VN Aspirin cartridge; arachidonic acid activator) or P2Y12 antagonists (VN PRUTest cartridge and VN P2Y12 cartridge; ADP+PGE1 activator/inhibitor combination). The modified thrombin receptor activating peptide (iso-TRAP) is included in a separate reaction chamber (in addition to the ADP+PGE1 reaction chamber) in both the PRUTest and P2Y12 cartridges, and the P2Y12 cartridges further include a ‘BASE channel’ reaction chamber in which a PAR-1 activating peptide (iso-TRAP) at higher concentrations is combined with a PAR-4 activating peptide (PAR-4 AP) to achieve potent activation that can overcome the effects of P2Y12 antagonists.
VerifyNow ADP+PGE1, iso-TRAP, and base channel assays may be used to report Compound (1)-mediated inhibition in near real-time. VN assays can be used to help deconvolute antiplatelet effects of αIIbβ3 antagonists versus P2Y12 antagonists. […] The BASE channel assay was used to monitor the pharmacodynamic effects of Compound (1) independent of any P2Y12 inhibitors.

[2] = test system: platelet aggregation; test: Light transmission aggregometry (LTA) with activators ADP, iso-TRAP, arachidonic acid; format: cell-based
Excerpt: Light transmission aggregometry (LTA) is considered the gold standard assay to assess the potency of antiplatelet agents, such as Compound (I), because of its association with clinical outcomes.

[3] = test system: platelet aggregation to adenosine diphosphate (ADP; 20 μM); test: Inhibition of platelet aggregation (IPA) to ADP (20 μM) after SC injection in healthy volunteers and stable CAD patients on aspirin; format: in vivo, human; details: for mean±SD IPA / IPA: 15 minutes after injection; for IPA: stable CAD patients on aspirin
Procedure: Sequentially, healthy volunteers (HV) and then patients with stable coronary disease (CAD) receiving aspirin received escalating doses of RUC-4 or placebo in a sentinel dose, randomized, blinded fashion. Inhibition of platelet aggregation (IPA) to adenosine diphosphate (ADP; 20 μM), RUC-4 blood levels, laboratory evaluations, and clinical assessments were made through 24 hours and at 7 days. Doses were increased until a dose that produced ≥80% IPA within 15 minutes, with return toward baseline within 4 hours was achieved. VerifyNow (VN) was also measured in a subset of patients with stable CAD.

[4] = test system: PAR1/PAR4-induced platelet aggregation (BASE Channel); test: VerifyNow P2Y12 assay BASE channel platelet inhibition in STEMI patients (CEL-02 trial); format: in vivo, human; details: for inhibition at 0.075 mg/kg / inhibition at 0.09 mg/kg / inhibition at 0.11 mg/kg: Homo sapiens, Platelet; for inhibition at 0.075 mg/kg: 0.075 mg/kg SC; for inhibition at 0.09 mg/kg: 0.090 mg/kg SC; for inhibition at 0.11 mg/kg: 0.11 mg/kg SC
Excerpt: The open-label, dose escalating, phase 2, CEL-02 trial set out to assess the pharmacodynamics (PD), pharmacokinetics (PK), safety and tolerability of RUC-4 in STEMI patients treated with aspirin and ticagrelor in the ambulance undergoing primary percutaneous coronary intervention (pPCI). STEMI patients presenting for pPCI at the St. Antonius Hospital Nieuwegein, the Netherlands, received a single, weight-adjusted, subcutaneous injection of RUC-4 before coronary angiography. After assessment of every 8 evaluable patients, the dose was escalated to reach an optimal dose for platelet inhibition. All patients were concomitantly treated with aspirin, ticagrelor and unfractionated heparin (UFH)(5000 IU) in the ambulance. Additional UFH during PCI was only administered when ACT was <200 seconds (2500-5000 IU). Blood samples for (PD) and (PK) were taken before RUC-4 administration, and 15, 45, 60, 90, 120, 180, and 240 minutes thereafter. Platelet inhibition was measured by the VerifyNow P2Y12 assay BASE channel which uses a protease activated receptor-1 (PAR-1) peptide (iso-TRAP) and a PAR-4 activating peptide as agonists, overriding platelet inhibition by oral P2Y12 inhibitors.

[5] = test system: platelets in whole blood (VN isoTRAP and ADP+PGE1 channels); test: In vitro VerifyNow IIb/IIIa and PRU cartridges in whole blood from healthy volunteers; format: cell-based, human; details: 30-900 nM, 10 minutes at room temperature
Procedure: Whole blood anticoagulated with either sodium citrate (0.32%) or PPACK ([…]) from healthy volunteers who were either taking or not taking daily aspirin was treated in vitro with Compound (I) (RUC-4) to achieve final whole blood concentrations between 30 and 900 nM. Blood was incubated for 10 minutes at room temperature and then tested with either the IIb/IIIa or PRU cartridge.

In the case of `CCCSc1nc(N[C@@H]2C[C@H]2c2ccc(F)c(F)c2)c2nnn([C@@H]3C[C@H](OCCO)[C@@H](O)[C@H]3O)c2n1` [ticagrelor], the “inhibition of VN ADP+PGE1 assay” value [1] is reported as “dramatically inhibits”, the “inhibition of VN base channel assay” value [1] is reported as “does not inhibit” and the “inhibition of VN iso-TRAP assay” value [1] is reported as “slightly inhibits”. For the same compound, the “inhibition of iso-TRAP induced LTA” value [2] was “slightly inhibits”.

`NCC(=O)Nc1cncc(-c2nn3c(=O)cc(N4CCNCC4)nc3s2)c1` [RUC-4] was tested, and the “mean±SD IPA” value ([3]; healthy volunteers, 0.05 mg/kg SC, n=6) was 71.8±15.0%, the “mean±SD IPA” value ([3]; healthy volunteers, 0.075 mg/kg SC, n=6) was 84.7±16.7% and the “time over which IPA diminished” value ([3]; healthy volunteers, in all cases, after SC injection) was 90 to 120 min. For the same compound, the IPA ([3]; 0.04 mg/kg SC, n=2) was 53.6±17.0%, the IPA ([3]; 0.05 mg/kg SC, n=6) was 76.9±10.6% and the IPA ([3]; 0.075 mg/kg SC, n=18) was 88.9±12.7%. It also gave an inhibition at 0.075 mg/kg ([4]; 0.25 h, 15 minutes post-dose, n=8, with aspirin, ticagrelor, UFH, read-out: maximal platelet inhibition, mean [SD]) of 83.7%, an inhibition at 0.09 mg/kg ([4]; 0.25 h, 15 minutes post-dose, n=9, with aspirin, ticagrelor, UFH, read-out: maximal platelet inhibition, mean [SD]) of 89.6% and an inhibition at 0.11 mg/kg ([4]; 0.25 h, 15 minutes post-dose, n=10, with aspirin, ticagrelor, UFH, read-out: maximal platelet inhibition, mean [SD]) of 92.5%. The inhibition at 0.075 mg/kg ([4]; 2 h, 120 minutes post-dose, n=8, read-out: platelet inhibition, mean (SD)) was 17.9%, the inhibition at 0.09 mg/kg ([4]; 2 h, 120 minutes post-dose, n=9, read-out: platelet inhibition, mean (SD)) was 22.6% and the inhibition at 0.11 mg/kg ([4]; 2 h, 120 minutes post-dose, n=10, read-out: platelet inhibition, mean (SD)) was 31.6%. The “time to maximal platelet function inhibition” value ([4]; single-dose subcutaneous) was at most 15 min, the “time to return of platelet function” value ([4]; single-dose subcutaneous) was at most 120 min and the “inhibition of the VN isoTRAP channels” value ([5]; IIb/IIIa and PRU cartridges) was “dose-dependent inhibition”. The “inhibition of the VN ADP+PGE1 channel” value ([5]; PRU cartridge) was “dose-dependent inhibition”, the “inhibition of VN ADP+PGE1 assay” value [1] was “dramatically inhibits” and the “inhibition of VN base channel assay” value [1] was “dramatically inhibits”. The “inhibition of VN iso-TRAP assay” value [1] was “dramatically inhibits”, the “inhibition of AA (arachidonic acid) induced LTA” value [2] was “dramatically inhibits” and the “inhibition of ADP induced LTA” value [2] was “dramatically inhibits”.

In the case of `CC(=O)Oc1ccccc1C(=O)O` [aspirin], the “effect of aspirin on IPA” value ([3]; subjects given RUC-4 SC) is reported as “did not affect”, the “effect of aspirin on RUC-4 blood levels” value ([3]; subjects given RUC-4 SC) is reported as “did not affect” and the “inhibition of VN ADP+PGE1 assay” value [1] is reported as “does not inhibit”. For the same compound, the “inhibition of VN base channel assay” value [1] was “does not inhibit”, the “inhibition of VN iso-TRAP assay” value [1] was “does not inhibit” and the “inhibition of ADP induced LTA” value [2] was “does not significantly inhibit”. For the same compound, the “inhibition of iso-TRAP induced LTA” value [2] was “does not significantly inhibit”.
